Results on 16 molecules are retold here after patent US20230116602A1, “MCL1 INHIBITORS AND USES THEREOF” (California Institute of Technology, priority 2019, published 2023).

In one assay the target is BCL2 (Homo sapiens, UniProt P10415). Put plainly: BCL2 affinity assay (competition binding, qPCR readout). The settings on record: recombinant BCL2, 11-point 3-fold dilution series. The protocol: (§1) Recombinant MCL1, BCL2 and BCXL proteins were prepared in either an E. coli host derived from the BL21 strain or in HEK-293 cells. The recombinant proteins were subsequently tagged with DNA for qPCR detection. Streptavidin-coated magnetic beads were treated for 30 minutes at room temperature with the respective biotinylated peptide ligands for each recombinant protein to generate affinity resins for the assays. The liganded beads were blocked with excess biotin and washed with blocking buffer (SeaBlock (Pierce), 1% BSA, 0.05% Tween 20, 1 mM DTT) to remove unbound ligand and to reduce nonspecific binding. Binding reactions were assembled by combining recombinant protein, liganded affinity beads, and test compounds in 1× binding buffer (20% SeaBlock, 0.17×PBS, 0.05% Tween 20, 6 mM DTT). Test compounds were prepared as 111X stocks in 100% DMSO. The compounds were then diluted directly into the assays such that the final concentration of DMSO was 0.9%. The assay plates were incubated at room temperature with shaking for 1 hour and the affinity beads were washed with wash buffer (1×PBS, 0.05% Tween 20). The beads were then re-suspended in elution buffer (1×PBS, 0.05% Tween 20, 0.5 μM non-biotinylated affinity ligand) and incubated at room temperature with shaking for 30 minutes. The recombinant protein concentration in the eluates was measured by qPCR. Kds were determined using an 11-point 3-fold compound dilution series with three DMSO control points.
A general note: Real-time PCR tracks product formation cycle by cycle.

A further assay has as its target MCL1 (Homo sapiens, UniProt Q07820). Nature of the assay: MCL1 affinity assay (competition binding, qPCR readout). The note with it: recombinant MCL1, 11-point 3-fold dilution series. Summed up: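 Competition binding: DNA-tagged recombinant protein (E. coli BL21-derived or HEK-293), biotinylated peptide ligand-loaded streptavidin beads and compound incubated 1 hour at room temperature, 0.9% DMSO final. Bound protein eluted with 0.5 μM non-biotinylated ligand and quantified by qPCR; Kd from 11-point 3-fold dilution series.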

A further assay has as its target BCLXL (Homo sapiens, UniProt Q07817). Nature of the assay: BCLXL affinity assay (competition binding, qPCR readout). The settings on record: recombinant BCLXL, 11-point 3-fold dilution series. As to the method: as §1
Assay [1] has as its system drug-resistant cell lines of Table 3. Put plainly: Cell line growth retardation assay, resistant cohort. The format is cell-based, Human. The settings on record: arithmetic mean of IC50s over the resistant cohort of Table 3, 6 days growth, read-out: AvgRes IC50. The gist of the method:
(§2)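 Cell lines classed as MCL1-inhibition sensitive or resistant were seeded, rested 24 h, then exposed to 10–0.0032 μM compound for 6 days. Cells were counted by imaging; growth inhibition was the ratio of population doublings with vs without compound from a pre-treatment baseline. IC50 from curve fits, averaged per cohort.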

Assay [2] deals with drug-sensitive cell lines of Table 3. Put plainly: Cell line growth retardation assay, sensitive cohort. The assay is classed as cell-based, Human. The note with it: for IC50: arithmetic mean of IC50s over the sensitive cohort of Table 3, 6 days growth, read-out: AvgSen IC50; for Fold Diff: average IC50 of resistant cohort divided by average IC50 of sensitive cohort. The gist of the method: as §2

Where two headings read alike, the source gives them in different places. Bounds are passed on as bounds.

BCL2, sequence (P10415 whole entry): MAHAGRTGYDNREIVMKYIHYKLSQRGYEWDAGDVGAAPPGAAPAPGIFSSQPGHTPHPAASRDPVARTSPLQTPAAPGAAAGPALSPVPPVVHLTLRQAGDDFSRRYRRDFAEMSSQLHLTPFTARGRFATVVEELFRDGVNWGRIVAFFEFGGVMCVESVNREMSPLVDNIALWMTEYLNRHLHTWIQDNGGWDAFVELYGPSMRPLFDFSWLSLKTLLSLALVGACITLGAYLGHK
MCL1, sequence (Q07820 whole entry): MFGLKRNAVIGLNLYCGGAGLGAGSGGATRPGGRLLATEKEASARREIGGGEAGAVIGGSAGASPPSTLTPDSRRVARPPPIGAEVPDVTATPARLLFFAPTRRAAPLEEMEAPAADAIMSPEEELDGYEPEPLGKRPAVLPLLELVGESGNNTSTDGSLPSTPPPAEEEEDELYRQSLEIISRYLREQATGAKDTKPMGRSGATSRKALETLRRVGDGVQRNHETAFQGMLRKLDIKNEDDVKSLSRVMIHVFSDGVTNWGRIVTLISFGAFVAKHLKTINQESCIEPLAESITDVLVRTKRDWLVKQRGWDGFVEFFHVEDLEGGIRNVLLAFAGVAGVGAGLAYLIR
BCLXL, sequence (Q07817 whole entry): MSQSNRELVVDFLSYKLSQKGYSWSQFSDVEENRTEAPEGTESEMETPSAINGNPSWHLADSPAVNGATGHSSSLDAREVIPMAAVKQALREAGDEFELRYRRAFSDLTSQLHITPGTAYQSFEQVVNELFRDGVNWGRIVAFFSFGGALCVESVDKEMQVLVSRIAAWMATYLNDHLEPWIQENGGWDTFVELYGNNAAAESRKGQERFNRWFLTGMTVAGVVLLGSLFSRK

For `Cc1c(-c2c(-c3ccc(F)c4ccoc34)ncc3snc(O[C@H](Cc4ccccc4OCc4ccnn4CC(F)(F)F)C(=O)O)c23)ccc(OCCN2CCN(C)CC2)c1Cl` (atropisomer, axis not shown) [Compound 14], the Kd at BCL2 was over 1500 nM; at MCL1, 101 to 500 nM; at BCLXL, over 1500 nM. The IC50 in assay [1] (Homo sapiens, 144 h) was over 5 µM; in assay [2] (Homo sapiens, 144 h), 1 to 5 µM. For the same molecule, in assay [2], the “Fold Diff” value was “− (“−” represents a fold difference less than 10)”.
In the case of `Cc1c(-c2c(-c3cccc(F)c3)ncc3snc(O[C@H](Cc4ccccc4)C(=O)O)c23)ccc(OCCN2CCN(C)CC2)c1Cl` (atropisomer, axis not shown) [Compound 92], the Kd at BCL2 was over 1500 nM; at MCL1 it was 501 to 1500 nM; on BCLXL it was over 1500 nM. The half-inhibitory concentration (IC50) in assay [1] (Homo sapiens, 144 h) is over 5 µM; in assay [2] (Homo sapiens, 144 h), 1 to 5 µM. For the same molecule, the “Fold Diff” value in assay [2] was “− (“−” represents a fold difference less than 10)”.
For the molecule `Cc1c(-c2c(-c3cccc4ccsc34)ncc3snc(O[C@H](Cc4ccccc4OCc4ccnn4CC(F)(F)F)C(=O)O)c23)ccc(OCCN2CCN(C)CC2)c1Cl` (atropisomer, axis not shown) [Compound 24], the dissociation constant Kd at BCL2, on MCL1 and on BCLXL was over 1500 nM in each case. The concentration for half-maximal inhibition (IC50) in assay [1] (Homo sapiens, 144 h) is over 5 µM; in assay [2] (Homo sapiens, 144 h), 1 to 5 µM. Also, in assay [2], the “Fold Diff” value was “− (“−” represents a fold difference less than 10)”.
As for `Cc1c(-c2c(-c3cccc(F)c3)ncc3snc(O[C@H](Cc4ccccc4OCc4ccnc(-c5ccncc5)n4)C(=O)O)c23)ccc(OCCN2CCN(C)CC2)c1Cl` (atropisomer, axis not shown) [Compound 72], the Kd at BCL2 is over 1500 nM; at MCL1, at most 100 nM; at BCLXL, over 1500 nM. Also, the half-inhibitory concentration (IC50) is over 5 µM in assay [1] (Homo sapiens, 144 h) and at most 1 µM in assay [2] (Homo sapiens, 144 h). In assay [2], the “Fold Diff” value is on record as “+ (“+” represents a fold difference of 10 or more)”.
Consider `COc1cccc(-c2ncc3snc(O[C@H](Cc4ccccc4OCc4ccnc(-c5ccccc5OC)n4)C(=O)O)c3c2-c2ccc(OC)c(Cl)c2C)c1` (atropisomer, axis not shown) [Compound 51], for which the results for the Kd at BCL2, at MCL1 and on BCLXL were over 1500 nM, at most 100 nM and over 1500 nM, respectively. For the same molecule, the half-inhibitory concentration (IC50) in assay [1] (Homo sapiens, 144 h) was over 5 µM; in assay [2] (Homo sapiens, 144 h) it was 1 to 5 µM. Also, the “Fold Diff” value in assay [2] is “− (“−” represents a fold difference less than 10)”.
Turning to `COc1cccc(-c2ncc3snc(O[C@H](Cc4ccccc4OCc4ccnc(-c5ccccc5OC)n4)C(=O)O)c3c2-c2ccc(OCCCN(C)C)c(Cl)c2C)c1` (atropisomer, axis not shown) [Compound 47], the dissociation constant (Kd) was over 1500 nM on BCL2, at most 100 nM at MCL1 and over 1500 nM on BCLXL. Moreover, the IC50 in assay [1] (Homo sapiens, 144 h) was over 5 µM; in assay [2] (Homo sapiens, 144 h) it was at most 1 µM. In assay [2], the “Fold Diff” value is on record as “+ (“+” represents a fold difference of 10 or more)”.
`Cc1c(-c2c(-c3ccc(F)cc3)ncc3snc(O[C@H](Cc4ccccc4OCc4ccnn4CC(F)(F)F)C(=O)O)c23)ccc(OCCN2CCN(C)CC2)c1Cl` (single isomer, unassigned) [Compound 6]: the values for the Kd on BCL2, on MCL1 and at BCLXL were over 1500 nM, 101 to 500 nM and over 1500 nM, respectively. Further, the IC50 is over 5 µM in assay [1] (Homo sapiens, 144 h) and 1 to 5 µM in assay [2]. Also, the “Fold Diff” value in assay [2] is “− (“−” represents a fold difference less than 10)”.
Turning to `Cc1c(-c2c(-c3cccc4c3CCC4)ncc3snc(O[C@H](Cc4ccccc4OCc4ccnn4CC(F)(F)F)C(=O)O)c23)ccc(OCCN2CCN(C)CC2)c1Cl` (atropisomer, axis not shown) [Compound 13], the Kd at BCL2, on MCL1 and on BCLXL was over 1500 nM throughout. In addition, the IC50 in assay [1] (Homo sapiens, 144 h) was over 5 µM; in assay [2] (Homo sapiens, 144 h), over 5 µM. Also, the “Fold Diff” value in assay [2] is “− (“−” represents a fold difference less than 10)”.
With `COc1ccccc1-c1nccc(COc2ccccc2C[C@@H](Oc2nsc3cnc(C4=CCOCC4)c(-c4ccc(OCCN5CCN(C)CC5)c(Cl)c4C)c23)C(=O)O)n1` (atropisomer, axis not shown) [Compound 54], the dissociation constant (Kd) on BCL2 is over 1500 nM; on MCL1 it was at most 100 nM; on BCLXL, over 1500 nM. For the same molecule, the 50% inhibitory concentration (IC50) was over 5 µM in assay [1] (Homo sapiens, 144 h) and 1 to 5 µM in assay [2] (Homo sapiens, 144 h). Moreover, the “Fold Diff” value in assay [2] is “− (“−” represents a fold difference less than 10)”.
Turning to `COc1cccc(-c2ncc3snc(O[C@H](Cc4ccccc4OCc4ccnn4CC(F)(F)F)C(=O)O)c3c2-c2ccc(OCCN3CCN(C)CC3)c(Cl)c2C)c1` (atropisomer, axis not shown) [Compound 23], the Kd at BCL2 was over 1500 nM; on MCL1, 101 to 500 nM; on BCLXL it was over 1500 nM. The 50% inhibitory concentration (IC50) in assay [1] (Homo sapiens, 144 h) was over 5 µM; in assay [2] (Homo sapiens, 144 h) it was at most 1 µM. The “Fold Diff” value in assay [2] is on record as “+ (“+” represents a fold difference of 10 or more)”.
As to `Cc1c(-c2c(-c3ccsc3)ncc3snc(O[C@H](Cc4ccccc4OCc4ccnn4CC(F)(F)F)C(=O)O)c23)ccc(OCCN2CCN(C)CC2)c1Cl` (atropisomer, axis not shown) [Compound 27], the Kd on BCL2 was over 1500 nM; at MCL1, 101 to 500 nM; on BCLXL it was over 1500 nM. The IC50 in assay [1] (Homo sapiens, 144 h) is over 5 µM; in assay [2] (Homo sapiens, 144 h) it was 1 to 5 µM. Further, in assay [2], the “Fold Diff” value was “− (“−” represents a fold difference less than 10)”.
As to `COc1ccccc1-c1nccc(COc2ccccc2C[C@@H](Oc2nsc3cnc(-c4ccccn4)c(-c4ccc(OCCN5CCN(C)CC5)c(Cl)c4C)c23)C(=O)O)n1` (atropisomer, axis not shown) [Compound 53], the Kd was over 1500 nM at BCL2, at most 100 nM at MCL1 and over 1500 nM on BCLXL. The 50% inhibitory concentration (IC50) in assay [1] (Homo sapiens, 144 h) was over 5 µM; in assay [2] (Homo sapiens, 144 h) it was over 5 µM. Further, the “Fold Diff” value in assay [2] is reported as “− (“−” represents a fold difference less than 10)”.
For the molecule `Cc1c(-c2c(-c3ccc(F)cc3)ncc3snc(O[C@H](Cc4ccccc4OCc4ccnn4CC(F)(F)F)C(=O)O)c23)ccc(OCCN2CCN(C)CC2)c1Cl` (single isomer, unassigned) [Compound 5], the dissociation constant (Kd) at BCL2, on MCL1 and at BCLXL was over 1500 nM throughout. Further, the IC50 in assay [1] and in assay [2] was over 5 µM in each case. Besides, the “Fold Diff” value in assay [2] is on record as “− (“−” represents a fold difference less than 10)”.
In the case of `Cc1c(-c2c(-c3csc4ccccc34)ncc3snc(O[C@H](Cc4ccccc4OCc4ccnn4CC(F)(F)F)C(=O)O)c23)ccc(OCCN2CCN(C)CC2)c1Cl` (atropisomer, axis not shown) [Compound 19], the Kd at BCL2, on MCL1 and at BCLXL was over 1500 nM throughout. Also, the half-maximal inhibitory concentration (IC50) in assay [1] (Homo sapiens, 144 h) was over 5 µM; in assay [2] (Homo sapiens, 144 h), 1 to 5 µM. Besides, the “Fold Diff” value in assay [2] is recorded as “− (“−” represents a fold difference less than 10)”.
For the molecule `Cc1c(-c2c(-c3ccc4c(ccn4C)c3)ncc3snc(O[C@H](Cc4ccccc4OCc4ccnn4CC(F)(F)F)C(=O)O)c23)ccc(OCCN2CCN(C)CC2)c1Cl` (atropisomer, axis not shown) [Compound 10], the Kd at BCL2, at MCL1 and on BCLXL was over 1500 nM throughout. Besides, the IC50 in assay [1] (Homo sapiens, 144 h) was over 5 µM; in assay [2] (Homo sapiens, 144 h), over 5 µM. In assay [2], the “Fold Diff” value is “− (“−” represents a fold difference less than 10)”.
For `COc1cccc(-c2ncc3snc(O[C@H](Cc4ccccc4OCc4ccnc(-c5ccccc5OC)n4)C(=O)O)c3c2-c2ccc(OCCN3CCOCC3)c(Cl)c2C)c1` (single isomer, unassigned) [Compound 42], the Kd at BCL2 is over 1500 nM; at MCL1, at most 100 nM; at BCLXL, over 1500 nM. Also, the concentration for half-maximal inhibition (IC50) in assay [1] (Homo sapiens, 144 h) is over 5 µM; in assay [2] (Homo sapiens, 144 h), 1 to 5 µM. Besides, the “Fold Diff” value in assay [2] is on record as “− (“−” represents a fold difference less than 10)”.

For orientation: Kd means the concentration at which binding is half-saturated. As a reminder, the IC50 is the concentration needed to halve the response being measured.
